Results taken from patent US12188947B2, “Marker for diagnosing atherosclerosis severity, and diagnostic method using same” (EWHA UNIVERSITY—INDUSTRY COLLABORATION FOUNDATION, priority 2018, dated 2025).
Where no end group is shown, it is not given here.

Test: Metabolic phenotype (body weight, metabolic organ weights) after LGI3 antagonist peptide injection
Format: in vivo, mouse
Description: LGI3 P34, made with a mouse LGI3 antagonist peptide, is a 15mer synthetic peptide containing amino acids (aa) […] (DEGRQKFVRFQELAV (SEQ ID NO:3)) of mouse Lgi3. The synthetic LGI3 peptide was dissolved in PBS and sterilized by filtration. PBS injection was used as a control for mouse experiments. All peptides were synthesized by Peptron (Seoul, Korea). Apoe^−/− mice fed a high fat diet for 16 weeks were intraperitoneally injected with PBS or the LGI3 antagonist peptide twice a week for the last 5 weeks.
Statistical analysis was performed using InStat. A two-sided Mann-Whitney U-test was used for comparison between two groups, and one-way ANOVA was used for comparisons among three or more groups. All data is presented as mean s.e.m, and P-values of ≤0.05 were considered statistically significant.

DEGRQKFVRFQELAV [LGI3 P34, DEGRQKFVRFQELAV]
epididymal fat weight (Apoe −/− mice, high fat diet 16 weeks, intraperitoneal injection for the last 5 weeks, n=9, PBS control 1.689±0.43, P=0.84): 1.58±0.51% | body weight (Apoe −/− mice, high fat diet 16 weeks, intraperitoneal injection for the last 5 weeks, n=9, PBS control 39.22±3.51, P=0.536): 38.08 ± 2.19 g | metabolic phenotype (in words) (body weight, WAT, spleen and liver weight to body weight versus control mice, FIG. 6): not changed
